Results as given in patent publication US20250230193A1, “CYCLIC COMPOUND HAVING SELECTIVE KRAS INHIBITORY EFFECT ON HRAS AND NRAS” (CHUGAI SEIYAKU KABUSHIKI KAISHA, priority 2022, published 2025).
*1 amine or outer side, *2 acyl side, *3 side chain or, on linkers, in order; H or OH if unused. Where a SMILES comes first, the peptide text is derived from it. Bridges are numbered along the chain shown (N, C = ends). [ ]: non-standard residue; d: D form. The star is where a group is joined. X24 = O=C([C@H](Cc1ccc(C(F)(F)F)cc1)N(CCC(F)(F)F)[*:1])[*:2]; X36 = CC(C)CCN([C@@H](Cc1ccc(C(F)(F)F)cc1)C(=O)[*:2])[*:1]; hPhe(3-Cl-4-CF3) = N[C@@H](CCc1ccc(C(F)(F)F)c(Cl)c1)C(=O)O; X18 = C=CCCN([C@@H](Cc1ccc(C(F)(F)F)cc1)C(=O)[*:2])[*:1]; X42 = COCCCN([C@@H](Cc1ccc(C(F)(F)F)cc1)C(=O)[*:2])[*:1]; X11 = C=CCN([C@@H](Cc1ccc(C(F)(F)F)cc1)C(=O)[*:2])[*:1]; X28 = C#CCN([C@@H](Cc1ccc(C(F)(F)F)cc1)C(=O)[*:2])[*:1]; X32 = COCCN([C@@H](Cc1ccc(C(F)(F)F)cc1)C(=O)[*:2])[*:1]; X48 = C=CCCN([C@@H](Cc1ccc(C)cc1)C(=O)[*:2])[*:1]; X40 = CCCN([C@@H](Cc1ccc(OC)cc1)C(=O)[*:2])[*:1]; X50 = C=CCN([C@@H](Cc1ccc(C)cc1)C(=O)[*:2])[*:1]; NPrPhe(4-Me) = CCCN[C@@H](Cc1ccc(C)cc1)C(=O)O; NMeGly(cPent) = CN[C@H](C(=O)O)C1CCCC1; Aze(3S-Me) = C[C@H]1CN[C@@H]1C(=O)O; NMeAllylGly = C=CC[C@H](NC)C(=O)O; NMeD = CN[C@@H](CC(=O)O)C(=O)O; NMeL = CN[C@@H](CC(C)C)C(=O)O; Morpholide = C1CN(*)CCO1; NMeA = CN[C@@H](C)C(=O)O; Ac5c = NC1(C(=O)O)CCCC1; Aze = O=C(O)[C@@H]1CCN1; Sar = CNCC(=O)O

Key:
[1] = target: GDP-bound NRAS wild-type protein (Homo sapiens, UniProt P01111); assay: Binding to NRAS by surface plasmon resonance (SPR), Single Cycle Kinetics; conditions: KD ratio NRAS/KRAS, SPR
[2] = target: GDP-bound HRAS wild-type protein (Homo sapiens, UniProt P01112); assay: Binding to HRAS by surface plasmon resonance (SPR), Single Cycle Kinetics; conditions: KD ratio HRAS/KRAS, SPR
GDP-bound HRAS wild-type protein, sequence (P01112 whole entry): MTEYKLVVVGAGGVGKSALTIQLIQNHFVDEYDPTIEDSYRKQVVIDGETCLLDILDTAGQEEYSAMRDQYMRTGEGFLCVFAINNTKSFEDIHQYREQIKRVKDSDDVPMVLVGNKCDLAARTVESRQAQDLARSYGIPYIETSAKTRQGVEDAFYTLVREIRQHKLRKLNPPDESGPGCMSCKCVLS

GDP-bound NRAS wild-type protein, sequence (P01111 whole entry): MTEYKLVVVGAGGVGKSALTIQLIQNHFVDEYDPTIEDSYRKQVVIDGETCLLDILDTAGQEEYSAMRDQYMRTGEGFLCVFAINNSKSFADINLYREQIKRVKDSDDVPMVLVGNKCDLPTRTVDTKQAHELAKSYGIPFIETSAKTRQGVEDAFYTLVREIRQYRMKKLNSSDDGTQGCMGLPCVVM

Compound	NRAS/KRAS (ratio of KD for GDP-bound NRAS wild-type to KD for KRAS) [1]	HRAS/KRAS (ratio of KD for GDP-bound HRAS wild-type to KD for KRAS) [2]
CC[C@H](C)[C@@H]1NC(=O)[C@H](CC(C)C)N(C)C(=O)C[C@@H](C(=O)N2CCOCC2)N(C)C(=O)[C@H](C2CCCC2)N(C)C(=O)C2(CCCC2)NC(=O)[C@@H]2CCCN2C(=O)[C@H](CCc2ccc(C(F)(F)F)c(Cl)c2)NC(=O)CN(C)C(=O)[C@H](Cc2ccc(C(F)(F)F)cc2)N(CCC(C)C)C(=O)CN(C)C(=O)CN(C)C1=O [PP0126] ([NMeL]I[Sar][Sar][X36][Sar][hPhe(3-Cl-4-CF3)]P[Ac5c][NMeGly(cPent)][NMeD]-Morpholide; lactam N-11)	C (A compound having a KD ratio of 0.1 or more and less than 3 is denoted as C)	C (A compound having a KD ratio of 0.1 or more and less than 3 is denoted as C)
C=CCN1C(=O)CN(C)C(=O)CN(C)C(=O)[C@H]([C@@H](C)CC)NC(=O)[C@H](CC(C)C)N(C)C(=O)C[C@@H](C(=O)N2CCOCC2)N(C)C(=O)[C@H](C2CCCC2)N(C)C(=O)C2(CCCC2)NC(=O)[C@@H]2CCCN2C(=O)[C@H](CCc2ccc(C(F)(F)F)c(Cl)c2)NC(=O)CN(C)C(=O)[C@@H]1Cc1ccc(C(F)(F)F)cc1 [PP0128] ([NMeL]I[Sar][Sar][X11][Sar][hPhe(3-Cl-4-CF3)]P[Ac5c][NMeGly(cPent)][NMeD]-Morpholide; lactam N-11)	C (A compound having a KD ratio of 0.1 or more and less than 3 is denoted as C)	C (A compound having a KD ratio of 0.1 or more and less than 3 is denoted as C)
C=CCCN1C(=O)CN(C)C(=O)CN(C)C(=O)[C@H]([C@@H](C)CC)NC(=O)[C@H](CC(C)C)N(C)C(=O)C[C@@H](C(=O)N2CCOCC2)N(C)C(=O)[C@H](C2CCCC2)N(C)C(=O)C2(CCCC2)NC(=O)[C@@H]2CCCN2C(=O)[C@H](CCc2ccc(C(F)(F)F)c(Cl)c2)NC(=O)CN(C)C(=O)[C@@H]1Cc1ccc(C(F)(F)F)cc1 [PP0129] ([NMeL]I[Sar][Sar][X18][Sar][hPhe(3-Cl-4-CF3)]P[Ac5c][NMeGly(cPent)][NMeD]-Morpholide; lactam N-11)	B (a compound having 3 or more and less than 10 is denoted as B)	C (A compound having a KD ratio of 0.1 or more and less than 3 is denoted as C)
C#CCN1C(=O)CN(C)C(=O)CN(C)C(=O)[C@H]([C@@H](C)CC)NC(=O)[C@H](CC(C)C)N(C)C(=O)C[C@@H](C(=O)N2CCOCC2)N(C)C(=O)[C@H](C2CCCC2)N(C)C(=O)C2(CCCC2)NC(=O)[C@@H]2CCCN2C(=O)[C@H](CCc2ccc(C(F)(F)F)c(Cl)c2)NC(=O)CN(C)C(=O)[C@@H]1Cc1ccc(C(F)(F)F)cc1 [PP0130] ([NMeL]I[Sar][Sar][X28][Sar][hPhe(3-Cl-4-CF3)]P[Ac5c][NMeGly(cPent)][NMeD]-Morpholide; lactam N-11)	C (A compound having a KD ratio of 0.1 or more and less than 3 is denoted as C)	C (A compound having a KD ratio of 0.1 or more and less than 3 is denoted as C)
CC[C@H](C)[C@@H]1NC(=O)[C@H](CC(C)C)N(C)C(=O)C[C@@H](C(=O)N2CCOCC2)N(C)C(=O)[C@H](C2CCCC2)N(C)C(=O)C2(CCCC2)NC(=O)[C@@H]2CCCN2C(=O)[C@H](CCc2ccc(C(F)(F)F)c(Cl)c2)NC(=O)CN(C)C(=O)[C@H](Cc2ccc(C(F)(F)F)cc2)N(CCC(F)(F)F)C(=O)CN(C)C(=O)CN(C)C1=O [PP0131] ([NMeL]I[Sar][Sar][X24][Sar][hPhe(3-Cl-4-CF3)]P[Ac5c][NMeGly(cPent)][NMeD]-Morpholide; lactam N-11)	B (a compound having 3 or more and less than 10 is denoted as B)	C (A compound having a KD ratio of 0.1 or more and less than 3 is denoted as C)
CC[C@H](C)[C@@H]1NC(=O)[C@H](CC(C)C)N(C)C(=O)C[C@@H](C(=O)N2CCOCC2)N(C)C(=O)[C@H](C2CCCC2)N(C)C(=O)C2(CCCC2)NC(=O)[C@@H]2CCCN2C(=O)[C@H](CCc2ccc(C(F)(F)F)c(Cl)c2)NC(=O)CN(C)C(=O)[C@H](Cc2ccc(C(F)(F)F)cc2)N(CCOC)C(=O)CN(C)C(=O)CN(C)C1=O [PP0132] ([NMeL]I[Sar][Sar][X32][Sar][hPhe(3-Cl-4-CF3)]P[Ac5c][NMeGly(cPent)][NMeD]-Morpholide; lactam N-11)	C (A compound having a KD ratio of 0.1 or more and less than 3 is denoted as C)	C (A compound having a KD ratio of 0.1 or more and less than 3 is denoted as C)
CC[C@H](C)[C@@H]1NC(=O)[C@H](CC(C)C)N(C)C(=O)C[C@@H](C(=O)N2CCOCC2)N(C)C(=O)[C@H](C2CCCC2)N(C)C(=O)C2(CCCC2)NC(=O)[C@@H]2CCCN2C(=O)[C@H](CCc2ccc(C(F)(F)F)c(Cl)c2)NC(=O)CN(C)C(=O)[C@H](Cc2ccc(C(F)(F)F)cc2)N(CCCOC)C(=O)CN(C)C(=O)CN(C)C1=O [PP0133] ([NMeL]I[Sar][Sar][X42][Sar][hPhe(3-Cl-4-CF3)]P[Ac5c][NMeGly(cPent)][NMeD]-Morpholide; lactam N-11)	B (a compound having 3 or more and less than 10 is denoted as B)	C (A compound having a KD ratio of 0.1 or more and less than 3 is denoted as C)
CCCN1C(=O)[C@@H]2CCN2C(=O)[C@H](C)N(C)C(=O)[C@H]([C@@H](C)CC)NC(=O)[C@H](CC(C)C)N(C)C(=O)C[C@@H](C(=O)N2CCOCC2)N(C)C(=O)[C@H](C2CCCC2)N(C)C(=O)C2(CCCC2)NC(=O)[C@@H]2CCCN2C(=O)[C@H](CCc2ccc(C(F)(F)F)c(Cl)c2)NC(=O)CN(C)C(=O)[C@@H]1Cc1ccc(OC)cc1 [PP0134] ([NMeL]I[NMeA][Aze][X40][Sar][hPhe(3-Cl-4-CF3)]P[Ac5c][NMeGly(cPent)][NMeD]-Morpholide; lactam N-11)	C (A compound having a KD ratio of 0.1 or more and less than 3 is denoted as C)	B (a compound having 3 or more and less than 10 is denoted as B)
CCCN1C(=O)CN(C)C(=O)CN(C)C(=O)[C@H]([C@@H](C)CC)NC(=O)[C@H](CC(C)C)N(C)C(=O)C[C@@H](C(=O)N2CCOCC2)N(C)C(=O)[C@H](C2CCCC2)N(C)C(=O)C2(CCCC2)NC(=O)[C@@H]2CCCN2C(=O)[C@H](CCc2ccc(C(F)(F)F)c(Cl)c2)NC(=O)CN(C)C(=O)[C@@H]1Cc1ccc(OC)cc1 [PP0135] ([NMeL]I[Sar][Sar][X40][Sar][hPhe(3-Cl-4-CF3)]P[Ac5c][NMeGly(cPent)][NMeD]-Morpholide; lactam N-11)	B (a compound having 3 or more and less than 10 is denoted as B)	C (A compound having a KD ratio of 0.1 or more and less than 3 is denoted as C)
CCCN1C(=O)[C@@H]2[C@@H](C)CN2C(=O)[C@H](C)N(C)C(=O)[C@H]([C@@H](C)CC)NC(=O)[C@H](CC(C)C)N(C)C(=O)C[C@@H](C(=O)N2CCOCC2)N(C)C(=O)[C@H](C2CCCC2)N(C)C(=O)C2(CCCC2)NC(=O)[C@@H]2CCCN2C(=O)[C@H](CCc2ccc(C(F)(F)F)c(Cl)c2)NC(=O)CN(C)C(=O)[C@@H]1Cc1ccc(C)cc1 [PP0138] ([NMeL]I[NMeA][Aze(3S-Me)][NPrPhe(4-Me)][Sar][hPhe(3-Cl-4-CF3)]P[Ac5c][NMeGly(cPent)][NMeD]-Morpholide; lactam N-11)	C (A compound having a KD ratio of 0.1 or more and less than 3 is denoted as C)	C (A compound having a KD ratio of 0.1 or more and less than 3 is denoted as C)
C=CC[C@H]1C(=O)N(CC=C)[C@@H](Cc2ccc(C)cc2)C(=O)N(C)CC(=O)N[C@@H](CCc2ccc(C(F)(F)F)c(Cl)c2)C(=O)N2CCC[C@H]2C(=O)NC2(CCCC2)C(=O)N(C)[C@@H](C2CCCC2)C(=O)N(C)[C@H](C(=O)N2CCOCC2)CC(=O)N(C)[C@@H](CC(C)C)C(=O)N[C@@H]([C@@H](C)CC)C(=O)N(C)CC(=O)N1C [PP0139] ([NMeL]I[Sar][NMeAllylGly][X50][Sar][hPhe(3-Cl-4-CF3)]P[Ac5c][NMeGly(cPent)][NMeD]-Morpholide; lactam N-11)	C (A compound having a KD ratio of 0.1 or more and less than 3 is denoted as C)	C (A compound having a KD ratio of 0.1 or more and less than 3 is denoted as C)
C=CCCN1C(=O)[C@H](CC=C)N(C)C(=O)CN(C)C(=O)[C@H]([C@@H](C)CC)NC(=O)[C@H](CC(C)C)N(C)C(=O)C[C@@H](C(=O)N2CCOCC2)N(C)C(=O)[C@H](C2CCCC2)N(C)C(=O)C2(CCCC2)NC(=O)[C@@H]2CCCN2C(=O)[C@H](CCc2ccc(C(F)(F)F)c(Cl)c2)NC(=O)CN(C)C(=O)[C@@H]1Cc1ccc(C)cc1 [PP0140] ([NMeL]I[Sar][NMeAllylGly][X48][Sar][hPhe(3-Cl-4-CF3)]P[Ac5c][NMeGly(cPent)][NMeD]-Morpholide; lactam N-11)	C (A compound having a KD ratio of 0.1 or more and less than 3 is denoted as C)	B (a compound having 3 or more and less than 10 is denoted as B)
